Assay in all cases: relative viability (nuclei count vs DMSO), 5 days (fraction); higher = more cells survive
Compound in experiment [1]: C1=CC=C2C(=C1)N=C(S2)C(C#N)C3=NC(=NC=C3)NCCC4=CN=CC=C4 + CC(=O)c1c(C)c2cnc(Nc3ccc(N4CCNCC4)cn3)nc2n(C2CCCC2)c1=O [Palbociclib] (partner 0.5 µM)
An outline of the steps: (§1)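 One day after seeding in 1536-well plates, lung cancer cell lines were dosed by pin tool. Dosing was either single-drug or a fixed anchor-drug dose plus five library-drug doses (not always all listed) in √10 steps. After 5 days, nuclei were stained in one fix-and-stain step and counted on 4× images, and relative viability is the nuclei count of treated wells over that of vehicle wells, given as the median of duplicate plates.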

Compound in the experiment “Vandetanib + Navitoclax”: COc1cc2/c(=N/c3ccc(Br)cc3F)nc[nH]c2cc1OCC1CCN(C)CC1 [Vandetanib] + CC1(C)CCC(c2ccc(Cl)cc2)=C(CN2CCN(c3ccc(C(=O)NS(=O)(=O)c4ccc(N[C@H](CCN5CCOCC5)CSc5ccccc5)c(S(=O)(=O)C(F)(F)F)c4)cc3)CC2)C1 [Navitoclax] (partner 0.5 µM)
In outline:
as §1

Compound in the experiment “NVP-TAE684 + Phenformin”: COc1cc(N2CCC(N3CCN(C)CC3)CC2)ccc1Nc1ncc(Cl)c(Nc2ccccc2S(=O)(=O)C(C)C)n1 [NVP-TAE684] + N=C(N)NC(=N)NCCc1ccccc1 [Phenformin] (partner 250 µM)
In outline:
as §1

Compound in the experiment “CUDC-101 + Vorinostat”: C#Cc1cccc(Nc2ncnc3cc(OC)c(OCCCCCCC(=O)NO)cc23)c1 [CUDC-101] + O=C(CCCCCCC(=O)Nc1ccccc1)NO [Vorinostat] (partner 1 µM)
An outline of the steps: as §1

Turning to UMC-11, the relative viability in experiment [1] (first compound 0.005 µM) turned out to be 0.377; in experiment [1] (first compound 0.01581 µM) it was 0.32; in experiment [1] (first compound 0.05 µM) it was 0.294; in experiment [1] (first compound 0.1581 µM), 0.346; in experiment [1] (first compound 0.5 µM) it was 0.31; in the experiment with Vandetanib + Navitoclax (first compound 0.02 µM) it was 0.312. In addition, the relative viability was 0.311 in the experiment with Vandetanib + Navitoclax (first compound 0.06325 µM); 0.286 with Vandetanib + Navitoclax (first compound 0.2 µM); 0.308 with Vandetanib + Navitoclax (first compound 0.6325 µM); 0.309 in the experiment with Vandetanib + Navitoclax (first compound 2 µM); 0.355 with NVP-TAE684 + Phenformin (first compound 0.2 µM); 0.32 in the experiment with NVP-TAE684 + Phenformin (first compound 0.6325 µM). For the same cell line, the relative viability amounted to 0.268 with NVP-TAE684 + Phenformin (first compound 2 µM); 0.359 with CUDC-101 + Vorinostat (first compound 0.01 µM); 0.317 with CUDC-101 + Vorinostat (first compound 0.03162 µM); 0.32 in the experiment with CUDC-101 + Vorinostat (first compound 0.1 µM); 0.129 in the experiment with CUDC-101 + Vorinostat (first compound 0.3162 µM); 0.0877 with CUDC-101 + Vorinostat (first compound 1 µM).

Source of the values: the supplement of paper PMC10307832.
